Test results as given in patent publication US8895568B2, “Compositions comprising substituted pteridines as agrochemicals” (Dow AgroSciences LLC, priority 2009, dated 2014).
Where two headings read alike, the source gives them in different places.

Key:
Format in all cases: in vivo
[1] = system: Pseudoperonospora cubensis; assay: Cucumber Downy Mildew (PSPECU), foliar spray, percent disease control; details: read-out: PSPECU percent control
Procedure: The activity of the compounds as effective fungicides was determined by applying the compounds to plants and observing control of fungal disease. The compounds were formulated at 200 ppm in 10 vol. % acetone plus 90 vol. % Triton X water (deionized water 99.99 wt %+0.01 wt % Triton X100), giving a “formulated test compound.” In a few cases, compounds were formulated at 75 or 8.3 ppm rather than 200 ppm in 10 vol. % acetone plus 90 vol. % Triton X water (deionized water 99.99 wt. %+0.01 wt. % Triton X100), giving a “formulated test compound.” Formulated test compounds were applied to plants using a turn table sprayer fitted with two opposing air atomization nozzles which delivered approximately 1500 L/ha of spray volume. All plants were inoculated with spores of the fungus the day after treatment, then incubated in an environment conducive to disease development. Disease severity was evaluated 4 to 15 days later, depending on the disease and the speed of disease development. The following experiments were performed in the laboratory to determine the fungicidal efficacy of the compounds of the invention. Cucumber Downy Mildew (causal agent Pseudoperonospora cubensis; Bayer code […]): Cucumber plants (variety Bush Champion) were grown from seed in a soil-less peat-based potting mixture (Metromix) until the first true leaf was 20-80% expanded. Each pot contained 1 seedling. These plants were sprayed until wet with the formulated test compound. On the following day, the leaves were inoculated with an aqueous suspension of downy mildew sporangia and the plants were kept in high humidity for one day to permit sporangia to germinate and infect the leaf. The plants were then incubated in a growth chamber until disease developed on untreated control plants. […] The effectiveness of the test compounds at controlling disease when sprayed on leaves was determined by assessing the severity of disease on treated plants, then converting the severity to percent control based on the level of disease on untreated, inoculated plants. Data are the level (in percent) at which the given disease was controlled when the given compound was applied to the foliage of the plants at 200 ppm. In a few cases (noted in the table) the compound was applied to the plants at 75 ppm or 8.3 ppm.

[2] = system: Colletotricum lagenarium; assay: Cucumber Anthracnose (COLLLA), foliar spray, percent disease control
Procedure: The activity of the compounds as effective fungicides was determined by applying the compounds to plants and observing control of fungal disease. The compounds were formulated at 200 ppm in 10 vol. % acetone plus 90 vol. % Triton X water (deionized water 99.99 wt %+0.01 wt % Triton X100), giving a “formulated test compound.” In a few cases, compounds were formulated at 75 or 8.3 ppm rather than 200 ppm in 10 vol. % acetone plus 90 vol. % Triton X water (deionized water 99.99 wt. %+0.01 wt. % Triton X100), giving a “formulated test compound.” Formulated test compounds were applied to plants using a turn table sprayer fitted with two opposing air atomization nozzles which delivered approximately 1500 L/ha of spray volume. All plants were inoculated with spores of the fungus the day after treatment, then incubated in an environment conducive to disease development. Disease severity was evaluated 4 to 15 days later, depending on the disease and the speed of disease development. The following experiments were performed in the laboratory to determine the fungicidal efficacy of the compounds of the invention. Cucumber Anthracnose (causal agent Colletotricum lagenarium; Bayer code COLLLA): Cucumber plants (variety Bush Champion) were grown from seed in a soil-less peat-based potting mixture (Metromix) until the first true leaf was 20-80% expanded. Each pot contained 1 seedling. These plants were sprayed until wet with the formulated test compound. On the following day, the leaves were inoculated with an aqueous spore suspension of Colletotricum lagenarium and the plants were kept in high humidity for one day to permit spores to germinate and infect the leaf. The plants were then transferred to a growth chamber until disease developed on untreated control plants. […] The effectiveness of the test compounds at controlling disease when sprayed on leaves was determined by assessing the severity of disease on treated plants, then converting the severity to percent control based on the level of disease on untreated, inoculated plants. Data are the level (in percent) at which the given disease was controlled when the given compound was applied to the foliage of the plants at 200 ppm. In a few cases (noted in the table) the compound was applied to the plants at 75 ppm or 8.3 ppm.

[3] = system: Cochliobolus sativus; assay: Spot Blotch of Wheat (COCHSA), foliar spray, percent disease control; details: Bipolaris sorokiniana, read-out: COCHSA percent control

## CCc1ccc(Oc2ccc(CCN(C(=O)OC(C)(C)C)c3ncnc4nccnc34)cc2)cc1 [Compound 139]
[1]; foliar
  pest or weed control at 200 µg/mL: 0 to 49%
[2]; foliar
  pest or weed control at 200 µg/mL: 0 to 49%
[3]; foliar
  pest or weed control at 200 µg/mL: 0 to 49%

## N#Cc1cc2ccccc2nc1Oc1ccc(CCNc2ncnc3nccnc23)cc1 [Compound 127]
[1]; foliar
  pest or weed control at 200 µg/mL: 50 to 79%
[2]; foliar
  pest or weed control at 200 µg/mL: 0 to 49%
[3]; foliar
  pest or weed control at 200 µg/mL: 0 to 49%

## N#Cc1c(Cl)cccc1Oc1ccc(CCNc2ncnc3nccnc23)cc1 [Compound 61]
[1]; foliar
  pest or weed control at 200 µg/mL: 80 to 100%
[2]; foliar
  pest or weed control at 200 µg/mL: 0 to 49%
[3]; foliar
  pest or weed control at 200 µg/mL: 0 to 49%

## N#Cc1ccnc(Oc2cccc(OCCNc3ncnc4nccnc34)c2)c1 [Compound 88]
[1]; foliar
  pest or weed control at 200 µg/mL: 80 to 100%
[2]; foliar
  pest or weed control at 200 µg/mL: 0 to 49%
[3]; foliar
  pest or weed control at 200 µg/mL: 0 to 49%

## Cc1cc(C(F)(F)F)cc(Oc2ccc(CCNc3ncnc4nccnc34)cc2)n1 [Compound 69]
[1]; foliar
  pest or weed control at 200 µg/mL: 80 to 100%
[2]; foliar
  pest or weed control at 200 µg/mL: 80 to 100%
[3]; foliar
  pest or weed control at 200 µg/mL: 0 to 49%

## CC(=O)Oc1cc(CCNc2ncnc3nccnc23)ccc1Oc1cc(C(C)(F)F)ccn1 [Compound 196]
[1]; foliar
  pest or weed control at 200 µg/mL: 80 to 100%
[2]; foliar
  pest or weed control at 200 µg/mL: 0 to 49%
[3]; foliar
  pest or weed control at 200 µg/mL: 0 to 49%

## FC(F)(F)c1cc(Oc2ccc(CCNc3ncnc4nccnc34)cc2)nc(C(F)(F)F)c1 [Compound 115]
[1]; foliar
  pest or weed control at 200 µg/mL: 80 to 100%
[2]; foliar
  pest or weed control at 200 µg/mL: 0 to 49%
[3]; foliar
  pest or weed control at 200 µg/mL: 0 to 49%

## Oc1ccc(CCNc2ncnc3nccnc23)cc1Br [Compound 211]
[1]; foliar spray
  pest or weed control at 200 µg/mL: 0 to 49%
[2]; foliar spray
  pest or weed control at 200 µg/mL: 0 to 49%
[3]; foliar spray
  pest or weed control at 200 µg/mL: 0 to 49%

## Cc1c(CCNc2ncnc3nccnc23)ccc(Oc2cncc(Cl)c2C#N)c1C [Compound 147]
[1]; foliar
  pest or weed control at 200 µg/mL: 80 to 100%
[2]; foliar
  pest or weed control at 200 µg/mL: 0 to 49%
[3]; foliar
  pest or weed control at 200 µg/mL: 0 to 49%

## CC(C)Oc1cc(CCNc2ncnc3nccnc23)ccc1Oc1cc(C(C)(F)F)ccn1 [Compound 195]
[1]; foliar
  pest or weed control at 200 µg/mL: 80 to 100%
[2]; foliar
  pest or weed control at 200 µg/mL: 50 to 79%
[3]; foliar
  pest or weed control at 200 µg/mL: 0 to 49%

## Cc1nc2ncnc(NCCc3ccc(O)cc3)c2nc1C [Compound 161]
[1]; foliar
  pest or weed control at 200 µg/mL: 0 to 49%
[2]; foliar
  pest or weed control at 200 µg/mL: 0 to 49%
[3]; foliar
  pest or weed control at 200 µg/mL: 0 to 49%

## FC(F)(F)c1cccnc1Oc1ccc(OCCNc2ncnc3nccnc23)cc1 [Compound 160]
[1]; foliar
  pest or weed control at 200 µg/mL: 80 to 100%
[2]; foliar
  pest or weed control at 200 µg/mL: 0 to 49%
[3]; foliar
  pest or weed control at 200 µg/mL: 0 to 49%

## Fc1nc(C(F)(F)F)c(F)c(Oc2ccc(CCNc3ncnc4nccnc34)cc2)c1F [Compound 89]
[1]; foliar
  pest or weed control at 200 µg/mL: 80 to 100%
[2]; foliar
  pest or weed control at 200 µg/mL: 0 to 49%
[3]; foliar
  pest or weed control at 200 µg/mL: 0 to 49%

## CC(C)(C)OC(=O)N(CCc1ccc(O)cc1)c1ncnc2nccnc12 [Compound 217, [2-(4-Hydroxyphenyl)-ethyl]-pteridin-4-yl-carbamic acid tert-butyl Ester]
[1]; foliar spray
  pest or weed control at 200 µg/mL: 50 to 79%
[2]; foliar spray
  pest or weed control at 200 µg/mL: 0 to 49%
[3]; foliar spray
  pest or weed control at 200 µg/mL: 50 to 79%

## COc1ccc(CCNc2nc(C)nc3nc(C)c(C)nc23)cc1 [Compound 208, [2-(4-Methoxyphenyl)-ethyl]-(2,6,7-trimethylpteridin-4-yl)-amine]
[1]; foliar spray
  pest or weed control at 200 µg/mL: 50 to 79%
[2]; foliar spray
  pest or weed control at 200 µg/mL: 0 to 49%
[3]; foliar spray
  pest or weed control at 200 µg/mL: 0 to 49%

## COc1cc(C(F)(F)F)cc(Oc2ccc(CCNc3ncnc4nccnc34)cc2)n1 [Compound 171]
[1]; foliar
  pest or weed control at 200 µg/mL: 80 to 100%
[2]; foliar
  pest or weed control at 200 µg/mL: 0 to 49%
[3]; foliar
  pest or weed control at 200 µg/mL: 0 to 49%

## CC(Nc1ncnc2nccnc12)c1ccccc1 (stereo not drawn) [Compound 9]
[1]; foliar
  pest or weed control at 200 µg/mL: 80 to 100%
[2]; foliar
  pest or weed control at 200 µg/mL: 0 to 49%
[3]; foliar
  pest or weed control at 200 µg/mL: 0 to 49%
